Entries after “also recorded” stand apart in the source; their conditions may differ.
Key:
DU145 xenograft = DU145 xenograft tumor growth; type: in vivo, mouse; conditions: nude mice
Procedure: (§1) In another animal experiment, we compared the anti-prostate tumor growth effect of S6, F5, and PE1 (each 300 mg/kg bid) to enzalutamide (10 mg/kg qd) (targeting on AR) on LNCaP (androgen dependent) xenograft tumor and Du145 xenograft tumor in nude mice for two weeks.

[1] = system: LNCaP (androgen dependent) xenograft tumor; experiment: LNCaP xenograft tumor growth; type: in vivo, nude mice; conditions: S6, F5, PE1 each 300 mg/kg bid; enzalutamide 10 mg/kg qd; two weeks
Procedure: as §1

androgen receptor = androgen receptor (Homo sapiens, UniProt P10275); experiment: PSA promoter luciferase reporter assay, 22RV1 AR-luciferase reporter cells; type: cell-based; conditions: for anti-androgen receptor (AR) activity, luciferase reporter assay: 22RV1 AR-luciferase reporter cells, with DHT; for anti-androgen receptor activity, luciferase reporter assay: in present of DHT 10 nM
Procedure: 22RV1 prostate cancer cells were used in the screening study. 22RV1 cell lines were stably transfected with PSA promoter-PGL4.2 luciferase reporter. 25 nM) H T was used to induce androgen receptor for 24 h.
22RV1 androgen reporter cells were treated with herbal extracts at 30, 100, 300, and 1000 μg/ml for 24 h in a 37° C.-CO2 incubator with or without 25 nM DHT which was used androgen receptor activity. Cells were lysed using luciferase lysis buffer after which luciferase buffer with luciferin was added to generate luminescence. Luminescence was recorded using a luminescence microplate reader.

22RV1 xenograft = 22RV1 xenograft tumor growth; type: in vivo, mouse; conditions: gallic acid 23 mg/kg BID orally, nude mice
Source text: E5 may have higher selectively to inhibit prostate cancer with AR protein in vivo. I2 may have higher selectively to inhibit prostate cancer without AR protein expression in vivo.

Chain of androgen receptor (P10275 whole entry): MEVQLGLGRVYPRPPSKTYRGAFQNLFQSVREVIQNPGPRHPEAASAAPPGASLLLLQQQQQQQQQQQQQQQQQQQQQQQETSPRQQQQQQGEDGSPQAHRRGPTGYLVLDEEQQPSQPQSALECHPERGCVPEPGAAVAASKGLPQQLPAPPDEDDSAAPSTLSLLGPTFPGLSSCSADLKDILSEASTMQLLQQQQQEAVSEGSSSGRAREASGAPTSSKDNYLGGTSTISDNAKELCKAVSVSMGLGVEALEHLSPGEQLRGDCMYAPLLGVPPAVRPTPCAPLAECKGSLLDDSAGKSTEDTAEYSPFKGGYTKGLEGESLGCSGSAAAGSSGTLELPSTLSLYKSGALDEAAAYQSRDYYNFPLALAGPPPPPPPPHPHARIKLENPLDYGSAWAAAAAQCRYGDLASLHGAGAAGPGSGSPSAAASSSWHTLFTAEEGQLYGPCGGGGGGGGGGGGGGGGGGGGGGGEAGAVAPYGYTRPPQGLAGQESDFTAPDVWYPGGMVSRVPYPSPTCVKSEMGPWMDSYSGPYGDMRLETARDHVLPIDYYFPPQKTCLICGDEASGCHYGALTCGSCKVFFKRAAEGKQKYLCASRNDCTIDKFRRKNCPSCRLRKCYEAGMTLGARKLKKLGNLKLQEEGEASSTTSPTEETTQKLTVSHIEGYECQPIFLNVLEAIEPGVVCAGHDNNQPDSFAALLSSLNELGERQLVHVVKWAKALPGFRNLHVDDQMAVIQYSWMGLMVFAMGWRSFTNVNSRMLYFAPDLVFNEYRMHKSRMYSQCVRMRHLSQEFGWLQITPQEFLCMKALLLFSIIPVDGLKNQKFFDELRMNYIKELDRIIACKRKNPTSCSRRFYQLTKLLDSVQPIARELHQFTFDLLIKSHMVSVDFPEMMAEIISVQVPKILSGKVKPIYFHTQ

CNC(=O)c1ccc(N2C(=S)N(c3ccc(C#N)c(C(F)(F)F)c3)C(=O)C2(C)C)cc1F [enzalutamide, reference compound]
growth of Du145 xenograft tumor (DU145 xenograft; S6, F5, PE1 each 300 mg/kg bid, enzalutamide 10 mg/kg qd, two weeks): not Du145 tumors
growth of LNCaP xenograft tumor [1]: effectively inhibited

O=C(O)c1cc(O)c2c(c1)[C@H]([C@H]1c3cc(CO)cc(O)c3C(=O)c3c(O[C@@H]4O[C@H](CO)[C@@H](O)[C@H](O)[C@H]4O)cccc31)c1cccc(O[C@@H]3O[C@H](CO)[C@@H](O)[C@H](O)[C@H]3O)c1C2=O [sennoside C]
anti-androgen receptor (AR) activity, luciferase reporter assay (androgen receptor): no

Oc1cc(O)c2c(c1)O[C@H](c1cc(O)c(O)c(O)c1)[C@@H](O)C2 [gallocatechin]
anti-androgen receptor (AR) activity, luciferase reporter assay (androgen receptor): showed inhibition; also recorded: different potency on inhibiting AR
anti-androgen receptor activity, luciferase reporter assay (androgen receptor): found to have anti-androgen receptor activity

Oc1cc(O)c2c(c1)O[C@H](c1cc(O)c(O)c(O)c1)[C@H](O)C2 [Epigallocatechin]
anti-androgen receptor (AR) activity, luciferase reporter assay (androgen receptor): showed inhibition; also recorded: different potency on inhibiting AR
anti-androgen receptor activity, luciferase reporter assay (androgen receptor): highest potency against AR

O=C(O)c1cc(O)c2c(c1)[C@H]([C@@H]1c3cc(CO)cc(O)c3C(=O)c3c(O[C@@H]4O[C@H](CO)[C@@H](O)[C@H](O)[C@H]4O)cccc31)c1cccc(O[C@@H]3O[C@H](CO)[C@@H](O)[C@H](O)[C@H]3O)c1C2=O [sennoside D]
anti-androgen receptor (AR) activity, luciferase reporter assay (androgen receptor): no

O=C(O)c1cc(O)c(O)c(O)c1 [gallic acid]
in vivo anti-tumor activity, 22RV1 tumor (22RV1 xenograft): exhibit in vivo anti-tumor activity
in vivo anti-tumor activity, Du145 tumor (DU145 xenograft; gallic acid 23 mg/kg BID orally): exhibit in vivo anti-tumor activity

Reference: patent publication US11839639B2, “Inhibition of androgen receptor by extracts of medicinal herbs and compositions thereof” (YALE UNIVERSITY, priority 2017, dated 2023)
